Laboratory results reported in publication PMC13352219, “Analysis of glutamine synthetase target‐site mutations and their role in endowing glufosinate‐ammonium resistance” (Pest Management Science, 2026).
“Also recorded” adds a separate entry of the source. Read-outs that look alike come from different tables or passages of the source.

Legend:
Format in all cases: biochemical
[1] = system: Amaranthus palmeri cytosolic GS1.1 A163Y; test: GS enzyme inhibition assay, GS1.1 A163Y
Description: (§1) GS activity was determined spectrophotometrically following the Sigma‐Aldrich enzymatic assay protocol. The reaction couples the ATP‐dependent conversion of L‐glutamate and ammonium to L‐glutamine with pyruvate kinase (PK) and L‐lactate dehydrogenase (LDH), such that oxidation of β‐NADH to β‐NAD^+ can be monitored at 340 nm. Recombinant GS from A. palmeri was expressed in E. coli, purified by affinity chromatography, and quantified by the Bradford method using bovine serum albumin as standard. […] Reaction mixtures were equilibrated to 37°C and initiated by the addition of enzyme, and the decrease in absorbance at 340 nm was recorded for 5–10 min; only the linear portion of the curve was used for activity calculations. […] Activity was calculated using an extinction coefficient for NADH of 6.22 mM^−1 cm^−1 and expressed as units per mg protein, where one unit corresponds to the formation of 1 μmol of L‐glutamine in […] at pH 7.1 and 37 °C. […] Percent inhibition was calculated relative to untreated (positive) and no‐enzyme (negative) controls. […] Resistance factors were calculated by dividing the IC₅₀ of each mutant variant by that of wild‐type GS.

[2] = system: Amaranthus palmeri cytosolic GS1.1 H249R; test: GS enzyme inhibition assay, GS1.1 H249R
Description: as §1

[3] = system: Amaranthus palmeri cytosolic GS1.1 E131Q; test: GS enzyme inhibition assay, GS1.1 E131Q
Description: as §1

[4] = system: Amaranthus palmeri cytosolic GS1.1 R311Q; test: GS enzyme inhibition assay, GS1.1 R311Q
Description: as §1

[5] = target: Amaranthus palmeri cytosolic GS1.1 G245P; test: GS enzyme inhibition assay, GS1.1 G245P; settings: read-out: Glufosinate‐ammonium IC50
Description: as §1

[6] = system: Amaranthus palmeri cytosolic GS1.1 E131V; test: GS enzyme inhibition assay, GS1.1 E131V
Description: as §1

[7] = system: Amaranthus palmeri cytosolic GS1.1 Y158T; test: GS enzyme inhibition assay, GS1.1 Y158T
Description: as §1

[8] = system: Amaranthus palmeri cytosolic GS1.1 R316A; test: GS enzyme inhibition assay, GS1.1 R316A
Description: as §1

[9] = system: Amaranthus palmeri cytosolic GS1.1 T60Q; test: GS enzyme inhibition assay, GS1.1 T60Q
Description: as §1

[10] = system: Amaranthus palmeri cytosolic GS1.1 Y158A; test: GS enzyme inhibition assay, GS1.1 Y158A
Description: as §1

[11] = system: Amaranthus palmeri cytosolic GS1.1 V193T; test: GS enzyme inhibition assay, GS1.1 V193T
Description: as §1

[12] = system: Amaranthus palmeri cytosolic GS1.1 E69L; test: GS enzyme inhibition assay, GS1.1 E69L
Description: as §1

[13] = system: Amaranthus palmeri cytosolic GS1.1 D56C; test: GS enzyme inhibition assay, GS1.1 D56C
Description: as §1

[14] = system: Amaranthus palmeri cytosolic GS1.1 R34A; test: GS enzyme inhibition assay, GS1.1 R34A
Description: as §1

[15] = system: Amaranthus palmeri cytosolic GS1.1 R291L; test: GS enzyme inhibition assay, GS1.1 R291L
Description: as §1

[16] = system: Amaranthus palmeri cytosolic GS1.1 G245S; test: GS enzyme inhibition assay, GS1.1 G245S
Description: as §1

[17] = system: Amaranthus palmeri cytosolic GS1.1 WT; test: GS enzyme inhibition assay, GS1.1 WT; settings: for IC50: read-out: Glufosinate‐ammonium IC50
Description: GS activity was determined spectrophotometrically following the Sigma‐Aldrich enzymatic assay protocol. The reaction couples the ATP‐dependent conversion of L‐glutamate and ammonium to L‐glutamine with pyruvate kinase (PK) and L‐lactate dehydrogenase (LDH), such that oxidation of β‐NADH to β‐NAD^+ can be monitored at 340 nm. Recombinant GS from A. palmeri was expressed in E. coli, purified by affinity chromatography, and quantified by the Bradford method using bovine serum albumin as standard. Assays were conducted at 37 °C in 3 mL total volume containing 34.1 mM imidazole (pH 7.1), 102 mM sodium L‐glutamate, 8.5 mM ATP, 1.1 mM phosphoenolpyruvate, 60 mM MgCl₂, 18.9 mM KCl, 45 mM NH₄Cl, 0.25 mM β‐NADH, 28 U PK, 40 U LDH, and 0.4–0.8 U recombinant GS. Reaction mixtures were equilibrated to 37°C and initiated by the addition of enzyme, and the decrease in absorbance at 340 nm was recorded for 5–10 min; only the linear portion of the curve was used for activity calculations. For inhibition assays, GFA was added directly to the reaction mixture to final concentrations ranging from 10^−8 M to 10^−2 M, using 2.5‐fold serial dilutions, with a no‐inhibitor control included in each run. Activity was calculated using an extinction coefficient for NADH of 6.22 mM^−1 cm^−1 and expressed as units per mg protein, where one unit corresponds to the formation of 1 μmol of L‐glutamine in […] at pH 7.1 and 37 °C. Background activity was corrected by including blank assays without GS. Percent inhibition was calculated relative to untreated (positive) and no‐enzyme (negative) controls. Assays were conducted in triplicates. IC₅₀ values (concentration of inhibitor reducing GS activity by 50%) were estimated by nonlinear regression (three‐ or four‐parameter log‐logistic models). Resistance factors were calculated by dividing the IC₅₀ of each mutant variant by that of wild‐type GS.

[18] = system: Amaranthus palmeri cytosolic GS1.1 E131A; test: GS enzyme inhibition assay, GS1.1 E131A
Description: as §1

[19] = system: Amaranthus palmeri cytosolic GS1.1 H249N; test: GS enzyme inhibition assay, GS1.1 H249N
Description: as §1

[20] = target: Eleusine indica GS1.1 S59G; test: GS enzyme inhibition assay, ELEIN GS1.1 S59G
[21] = system: Amaranthus palmeri cytosolic GS1.1 G245C; test: GS enzyme inhibition assay, GS1.1 G245C
Description: as §1

[22] = system: Amaranthus palmeri GS2.2 G255D; test: GS enzyme inhibition assay, GS2.2 G255D; settings: full range of GFA concentrations tested (10^−8 M to 10^−2 M), listed as GFA
Description: as §1

[23] = system: Amaranthus palmeri cytosolic GS1.1 K165S; test: GS enzyme inhibition assay, GS1.1 K165S
Description: as §1

[24] = system: Amaranthus palmeri cytosolic GS1.1 R311P; test: GS enzyme inhibition assay, GS1.1 R311P
Description: as §1

[25] = system: Amaranthus palmeri cytosolic GS1.1 R291P; test: GS enzyme inhibition assay, GS1.1 R291P
Description: as §1

[26] = system: Amaranthus palmeri cytosolic GS1.1 A309Y; test: GS enzyme inhibition assay, GS1.1 A309Y
Description: as §1

[27] = system: Amaranthus palmeri cytosolic GS1.1 E192K; test: GS enzyme inhibition assay, GS1.1 E192K
Description: as §1

[28] = system: Amaranthus palmeri cytosolic GS1.1 E131K; test: GS enzyme inhibition assay, GS1.1 E131K
Description: as §1

[29] = read-out: Glufosinate‐ammonium IC50

CP(=O)(O)CCC(N)C(=O)O (stereo not shown) [Glufosinate‐ammonium]
Resistance index (RI) ([1]; IC50 variant / IC50 WT): 2.5
IC50 [1, 29]: 54 µM
Glufosinate‐ammonium % Inhibition at saturation 10 000 μM ([2]; 10 000 μM): 29%
IC50 [2, 29]: > 10000 µM
Glufosinate‐ammonium % Inhibition at saturation 10 000 μM ([3]; 10 000 μM): 6.5%
IC50 [3, 29]: > 10000 µM
Glufosinate‐ammonium % Inhibition at saturation 10 000 μM ([4]; 10 000 μM): 1.9%
IC50 [4, 29]: > 10000 µM
IC50 [5]: 247 µM
Glufosinate‐ammonium % Inhibition at saturation 10 000 μM ([6]; 10 000 μM): 6.6%
IC50 [6, 29]: > 10000 µM
Resistance index (RI) ([7]; IC50 variant / IC50 WT): 3.5
IC50 [7, 29]: 76 µM
Resistance index (RI) ([8]; IC50 variant / IC50 WT): 14.4
IC50 [8, 29]: 313 µM
Resistance index (RI) ([9]; IC50 variant / IC50 WT): 16.9
IC50 [9, 29]: 366 µM
Resistance index (RI) ([10]; IC50 variant / IC50 WT): 64.6
IC50 [10, 29]: 1400 µM
Resistance index (RI) ([11]; IC50 variant / IC50 WT): 3.2
IC50 [11, 29]: 69 µM
Resistance index (RI) ([12]; IC50 variant / IC50 WT): 11.4
IC50 [12, 29]: 246 µM
Resistance index (RI) ([13]; IC50 variant / IC50 WT): 0.2
IC50 [13, 29]: 3.9 µM
Resistance index (RI) ([14]; IC50 variant / IC50 WT): 8.4
IC50 [14, 29]: 182 µM
Glufosinate‐ammonium % Inhibition at saturation 10 000 μM ([15]; 10 000 μM): 0%
IC50 [15, 29]: > 10000 µM
Glufosinate‐ammonium % Inhibition at saturation 10 000 μM ([16]; 10 000 μM): 9%
IC50 [16, 29]: > 10000 µM
Glufosinate‐ammonium % Inhibition at saturation 10 000 μM ([17]; 10 000 μM): 100%
Resistance index (RI) ([17]; IC50 variant / IC50 WT): 1
IC50 ([17]; Table 2 panel): 22.5 µM
IC50 ([17]; Table 3 panel): 21.7 µM
Glufosinate‐ammonium % Inhibition at saturation 10 000 μM ([18]; 10 000 μM): 8.5%
IC50 [18, 29]: > 10000 µM
Glufosinate‐ammonium % Inhibition at saturation 10 000 μM ([19]; 10 000 μM): 17%
IC50 [19, 29]: > 10000 µM
IC50 [20]: 19 µM
Glufosinate‐ammonium % Inhibition at saturation 10 000 μM ([21]; 10 000 μM): 0%
IC50 [21, 29]: > 10000 µM
inhibition by GFA [22]: completely insensitive; also recorded: no measurable inhibition; also recorded: no detectable inhibition
Resistance index (RI) ([23]; IC50 variant / IC50 WT): 0.3
IC50 [23, 29]: 7.6 µM
Glufosinate‐ammonium % Inhibition at saturation 10 000 μM ([24]; 10 000 μM): 0%
IC50 [24, 29]: > 10000 µM
Glufosinate‐ammonium % Inhibition at saturation 10 000 μM ([25]; 10 000 μM): 0%
IC50 [25, 29]: > 10000 µM
Resistance index (RI) ([26]; IC50 variant / IC50 WT): 799.7
IC50 ([26]; read-out: Glufosinate‐ammonium IC50 (converted)): 17400 µM
Glufosinate‐ammonium % Inhibition at saturation 10 000 μM ([27]; 10 000 μM): 1.3%
IC50 [27, 29]: > 10000 µM
Glufosinate‐ammonium % Inhibition at saturation 10 000 μM ([28]; 10 000 μM): 0%
IC50 [28, 29]: > 10000 µM
